Source: US12403132B2, “Methods of treating bone marrow failure syndromes and compositions for use in the same” (The Board of Trustees of the Leland Stanford Junior …, priority 2020, dated 2025)

Legend:
NLK [1] = molecular target: T1, NLK (Homo sapiens, UniProt Q9UBE8); experiment: Kinase assay of NLK immunopurified from treated differentiating human progenitors; type: cell-based; set-up: 5000 cells per treatment were lysed and immunopurified NLK was subjected to in vitro kinase assay; endogenous in cells; host or cells: human cord blood CD34+ HSPCs transduced with shLuc / shRPS19 / shRPL11, differentiating in erythroid medium; details: NLK from ginsenoside Rb1-treated RPS19-insufficient progenitors
T1 sequence (Q9UBE8 1-527): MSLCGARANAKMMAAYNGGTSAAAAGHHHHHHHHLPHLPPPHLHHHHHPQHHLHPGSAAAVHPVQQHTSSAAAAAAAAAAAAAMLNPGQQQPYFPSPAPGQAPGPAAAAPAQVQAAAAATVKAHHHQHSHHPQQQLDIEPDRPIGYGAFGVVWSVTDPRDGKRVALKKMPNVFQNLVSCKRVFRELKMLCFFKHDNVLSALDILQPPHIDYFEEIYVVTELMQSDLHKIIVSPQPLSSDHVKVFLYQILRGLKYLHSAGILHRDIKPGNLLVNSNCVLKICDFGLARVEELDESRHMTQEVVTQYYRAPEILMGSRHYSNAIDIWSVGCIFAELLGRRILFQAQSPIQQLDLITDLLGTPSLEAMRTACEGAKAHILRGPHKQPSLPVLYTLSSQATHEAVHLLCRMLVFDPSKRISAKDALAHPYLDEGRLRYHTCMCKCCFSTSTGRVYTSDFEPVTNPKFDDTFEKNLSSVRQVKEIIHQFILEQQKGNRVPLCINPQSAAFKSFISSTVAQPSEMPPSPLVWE

RPS19 = RPS19 expression in differentiating HSPCs (qRT-PCR); type: cell-based, human; details: differentiating RPS19-insufficient HSPCs
From the text: As the suppression of NLK by miRNAs has been documented, we sought to screen a number of common nutritional supplements that have been documented to modulate miRNAs in their ability to improve erythroid expansion in an in vitro model of DBA. To induce ribosomal insufficiency, CD34+ HSPCs from human cord blood were transduced with a shRNA against RPS19 that reduced RPS19 expression by approximately 50% to recapitulate decreased function due to RPS19 mutations in DBA patients. As described above, metformin improves erythroid expansion by miRNA-mediated suppression of NLK mRNA expression and was therefore included as a positive control. […] Efficacy of shRNA against RPS19 was quantified by qRT-PCR. […] To determine if the ginsenoside Rb1 effect was through the inhibition of NLK, we treated differentiating HSPCs with ginsenoside Rb1 that were transduced with a non-targeting control or siRNA against NLK. Ginsenoside R1 alone or siRNA against NLK alone improved erythroid expansion by 2.7- and 5.1-fold, respectively.

NLK [2] = experiment: NLK expression and NLK activity in murine progenitors; type: cell-based, mouse; details: control, RPS19- or RPL11-insufficient mice, metformin
From the text: FIG. 11. […] Statistics: two-tailed Student's t test, significant *P<0.05

[3] = tested on: miR-26a and other miRNAs (let-7, miR-30, miR-181, miR-199, miR-144); experiment: miRNA expression by qRT-PCR in differentiating human CD34+ progenitors; type: cell-based
Protocol: (§1) FIG. 14. Metformin-mediated upregulation of miR-26a in human progenitors suppresses NLK expression. (Panel A) Human CD34+ (upper) and murine Lin-Kit+ (lower) progenitors were differentiated for 8 days in the presence or absence of metformin and the levels of indicated miRNAs were assessed by qRT-PCR. (Panel B) K562 cells stably expressing the luciferase gene coupled to the NLK 3′UTR were mock transfected, transfected with indicated miRNA mimetics, or treated with metformin, and cultured in the presence or absence of metformin for 72 hrs. After lysis, luciferase activity was determined and endogenous NLK and GAPDH protein expression was analyzed by Western blot. (Panel C) K562 cells were mock transfected, or transfected with either miR-34 or miR-26 sponges, prior to being left untreated or treated with metformin for 72 hrs. Lysed cells were subjected to luciferase assay and western blotting to examine NLK and GAPDH protein expression. […] Statistics: two-tailed Student's t test, significant *P<0.05
FIG. 15. MiR-26a mimetic substitutes for metformin in improving erythropoiesis in RPS19-insufficiency. (Panel A) Human CD34+ cells were transduced with shRNA against a control (shLuc) or RPS19 (shRPS19) and transfected with a miR-26a mimetic or a mock control. After differentiation in the absence or presence of metformin for 12 days, cells were counted and the percentage of CD235+ erythroblasts determined by flow cytometry. The calculated CD235+ population of each treatment group is represented as a percentage of the untreated control group (upper). In parallel, qRT-PCR was performed to determine mRNA expression of NLK (middle) and miR-26a (lower). (Panel B) Lin-Kit+ progenitors for RPL11+/+ and RPL+/lox mice were mock transfected or transfected with miR-26a mimetic and differentiated for 8 days. Cells were subjected to counting and the percentage of Ter119+ erythroblasts determined (upper) in conjunction with qRT-PCR examining NLK (middle) and miR-26a (lower) mRNA expression. […] Statistics: two-tailed Student's t test, significant *P<0.05
(§2) MessengerRNA was quantified as described (5). MicroRNA was quantified using TaqMan® Small RNA Assays (Applied Biosystems) as per manufacturer's directions and normalized to snoRNA.

miRNA species = experiment: miRNA expression by qRT-PCR in differentiating murine Lin-Kit+ progenitors; type: cell-based, mouse; details: metformin
Protocol: as §1, §2

NLK [4] = experiment: Endogenous NLK protein in K562 cells (Western blot); type: cell-based, human; details: K562, miRNA mimetics or metformin, 72 hrs
Protocol: as §1
NLK kinase activity was performed as published (5). For Western blotting, antibodies against NLK (#AB97642; Abcam; 1:1000 dilution) and GAPDH (#MAB374; Millipore; 1:10000) were used according to manufacturer's instructions.

Compound | reduced NLK kinase activity (NLK [1]) [%] | influence on RPS19 expression (RPS19) | impact on NLK activity (NLK [2]) | impact on NLK expression (NLK [2]) | miR-26a level ([3]; RPS19-insufficiency) [fold] | miR-26a level ([3]; control) [fold] | upregulation of miR-26a ([3]; human CD34+ progenitors in erythroid media, metformin, 8 days) [fold] | expression of other miRNA species (let-7, miR-30, miR-181, miR-199, miR-144) ([3]; human CD34+ progenitors, metformin) | upregulation of miRNA species (miRNA species) | reduction of endogenous NLK protein expression (NLK [4]) [%]
CC(C)=CCC[C@](C)(O[C@@H]1O[C@H](CO[C@@H]2O[C@H](CO)[C@@H](O)[C@H](O)[C@H]2O)[C@@H](O)[C@H](O)[C@H]1O)[C@H]1CC[C@]2(C)[C@@H]1[C@H](O)C[C@@H]1[C@@]3(C)CC[C@H](O[C@@H]4O[C@H](CO)[C@@H](O)[C@H](O)[C@H]4O[C@@H]4O[C@H](CO)[C@@H](O)[C@H](O)[C@H]4O)C(C)(C)[C@@H]3CC[C@]12C [ginsenoside Rb1] | 44.8 | did not influence | – | – | – | – | – | – | – | –
CN(C)C(=N)N=C(N)N [metformin] | – | – | no impact | no impact | 2.5 | 2.4 | 2.4 | did not alter | none of the miRNA species examined demonstrated significant upregulation | 68.6
